# According to US10441594B2, “Methods of making quinoa leachates and uses thereof” (priority 2013, dated 2019):
# Tests used:
# [1] = tested on: diet-induced obese, hyperglycemic mice; conditions: 10 mg/kg body weight for 13 wk; cited from earlier work
# [2] = tested on: diet-induced obese, hyperglycemic mice (C57BL/6J); test: Acute hypoglycemic study in diet-induced obese mice (fasting blood glucose); type: in vivo; conditions: 300 mg/kg oral
# Description: An acute hypoglycemic study in diet-induced obese mice was performed as described previously (Cheng et al., Food Chem 135: 2994-3002, 2012, incorporated herein by reference). Briefly, five-week-old male C57Bl/6J mice (Jackson Labs), acclimated for 1 week with ad libitum access to chow (Purina, No. 5014) and water, and maintained on a very high-fat diet (VHFD) containing 60% fat-derived calories (D12492; Research Diets) for an additional 15 weeks to induce obesity, insulin resistance, and hyperglycemia. Food intake and body weight were monitored weekly. Following a 4-hour fasting period, fasting blood glucose (FBG) was measured using an AlphaTRAK® handheld glucometer (Abbott Labs, Inc.), and mice were randomly divided into FBG-balanced experimental groups.
# Quinoa leachate (QL) was formulated in 70% Labrasol® (Gattefossé Corp., Paramus, N.J.). The biological activity of QL was tested using an oral ingestion of 0.25 ml per 50 g body weight of vehicle (70% Labrasol®) or QL (250 and 500 mg/kg) (n=7). Metformin® (300 mg/kg, dissolved in water) was administered as a positive control. FBG was reassessed 4 hours post-treatment. Mean FBG values before and after treatment were calculated for each group and compared using paired t-tests in Microsoft Excel. Additionally, final % FBG (final FBG/initial FBG×100) of each mouse was calculated 4 hours post-treatment. […]
Compound,blood glucose levels [1],reduction of adiposity compared with control [1],"hypoglycemic effect compared with control (1-way ANOVA, Dunnett's post hoc test) ([2]; 4 hours)",FBG levels 4 hours after oral administration versus before treatment (paired t-test) ([2]; positive control)
"CC(C)(O)CC[C@@H](O)[C@](C)(O)[C@H]1CC[C@@]2(O)C3=CC(=O)[C@@H]4C[C@@H](O)[C@@H](O)C[C@]4(C)[C@H]3CC[C@]12C [20-HE, 20-hydroxyecdysone]",significantly lowered blood glucose levels,41%,–,–
CN(C)C(=N)N=C(N)N [Metformin],–,–,significant hypoglycemic effects compared with control,significantly lowered FBG levels
